Entries after “also recorded” stand apart in the source; their conditions may differ.
Experiments:
[1] = MTT cell viability assay (cytotoxicity), bEnd3; type: cell-based, mouse; details: mouse, bEnd3 brain endothelial cells, 1–500 µM
Protocol: Mouse-brain endothelial cell line bEnd3 [36] (CRL-2299) was purchased from the American Type Culture Collection (ATCC, Manassas, VA, USA). The cells were cultured in DMEM (Dulbeco’s modified essential medium) (cat. no. 30-2002, ATCC, Manassas, VA, USA), supplemented with 10% heat-inactivated FBS (cat. no. F7524, Sigma-Aldrich Co. LLC, St. Louis, MO, USA), 1 mM L-glutamine (cat. no. G7513, Sigma-Aldrich Co. LLC, St. Louis, MO, USA) and 1× Antibiotic-Antimycotic solution (penicillin: streptomycin: amphotericin B (100 U/mL: 0.10 mg/mL: 0.25 µg/mL) (cat. no. A5955, Sigma-Aldrich Co. LLC, St. Louis, MO, USA) at 37 °C in a humidified atmosphere containing 5% CO2. The cells were passaged in 75 cm^2 flasks every 3–5 days via trypsinization (StableCell Trypsin solution, cat. no. T2610, Sigma-Aldrich Co. LLC, St. Louis, MO, USA).
Cell viability was assessed via the mitochondrial reductase-dependent reaction of (3-(4,5-dimethylthiazol-2-yl)- 2,5-diphenyl tetrazolium bromide (MTT, cat. no. 475989, Calbiochem, Merck KGaA, Darmstadt, Germany). The SH-SY5Y and bEnd3 cell lines were seeded in 96-well plates at a density of 0.7 × 10^4 (bEnd3) or 2 × 10^4 (SH-SY5Y) cells/well and allowed to adhere for 24 h at 37 °C, 5% CO2. Then, the cells were incubated with the compounds (1–500 μM) for a preset time (24 h). For the solvent, the control cells were treated with DMSO corresponding to the highest concentration of DMSO in the samples (0.5% DMSO) in order to exclude its cytotoxic effect on the cells. For each concentration, a set of at least 6 wells were used. After incubation, the solution from each well was exchanged with fresh culture medium (100 µL/well), containing the MTT reagent (0.5 mg/mL) and incubated for 3 h at 37 °C in a humidified atmosphere and 5% CO2. The obtained formazan crystals were dissolved in 100 µL/well of 5% formic acid in propan-2-ol solution (or DMSO). The absorbance was measured at 570 nm via multiplate reader Tecan Infinite F200 PRO (Tecan Trading AG., Männedorf, Switzerland) or Synergy 2 (BioTek Instruments, Inc., Highland Park, Winooski, VT, USA).
Both the SH-SY5Y and bEnd3 cells were treated with the test compounds in a concentration range from 1 to 500 µM for 24 h.

[2] = Fe(II)-induced lipid peroxidation assay (LP assay, TBARS); type: biochemical; details: 90 µM, lecithin 1 mg/mL, 0.1 mM FeCl2; lower = stronger antioxidant
Protocol: The lipid peroxidation assay and a modification of the deoxyribose-degradation assay were used. Two types of measurement compositions in phosphate buffer (PB–K2HPO4/KH2PO4, pH 7.4) were prepared for both tests: (i) samples, containing the biologically relevant molecules (lecithin emulsion or deoxyribose), iron, and the tested hydrazones at the concentrations indicated below the figures; and (ii) controls, in which the tested hydrazones were omitted. The data for the sample activity were presented as a percentage of the control measurement.
The thiobarbituric-acid reactive-substance colorimetric test was performed in a model system of Fe(II)-induced lipid peroxidation as an emulsion prepared from egg yolk phospholipids. Each sample contained 1 mg/mL of lecithin. LP was initiated using 0.1 mM FeCl2. After 30 min incubation at 37 °C, 0.5 mL of 2.8% trichloroacetic acid solution and 0.5 mL of 0.5% thiobarbituric acid solution were added, following a second incubation at 100 °C for 20 min. Centrifugation at 3000 rpm for 20 min at 4 °C was performed, and we determined the absorbance value of the supernatant at 532 nm via Shimadzu UV-1601 UV-VIS spectrophotometer.

[3] = O-phenanthroline Fe(II) chelation test; type: physicochemical; details: 200 µM compound, FeCl2
Protocol: The Fe (II)-chelating activity of the tested hydrazones was determined by the O-phenanthroline method. A total of 1 mL sample solutions of 50 mM PB pH 7 contained 0.2 mM O-phenanthroline and 0.05 mM FeCl2 and 0.2 mM hydrazone. In the controls, the tested compounds were omitted. Absorbance was measured at 515 nm via GENESYS 50 UV-VIS spectrophotometer after incubation for 5 min at 37 °C. The data for the sample activity were presented as a percentage of the control measurement. Absorbance spectra of all the samples, the control, and the measurement compositions containing the tested hydrazones and Fe(II) at the concentrations used in the samples were measured.
To explain the results of both systems of Fe(II)-induced oxidative damage, we studied the potency of the tested compounds to chelate-iron (Fe(II)). This was studied by spectrophotometric determination of free iron (Fe(II)) using the ortho-phenanthroline test, as 1,10-phenantroline reacts rapidly with Fe(II) ions in weakly acidic media, generating an orange–red complex (ferroin) with characteristic absorbance spectra (molar absorptivity 1.10.104 (α = 0.20) at ~max 512 nm and a molar ratio 3:1 (R: Fe(II))). The generated complex was stable, and the bound Fe(II) was resistant to oxidation. Lower absorbance of the reaction mixture indicated higher Fe^2+-chelating activity.

[4] = system: isolated rat-brain synaptosomes; experiment: 6-OHDA-induced neurotoxicity in isolated rat synaptosomes, GSH level; type: cell-based; details: 10 µM pre-incubation 30 min, then 150 µM 6-OHDA 1 h
Protocol: This neurotoxicity model was based on the metabolism and auto-oxidation of 6-hydroxy dopamine responsible for the reactive oxygen species and quinones generation, ultimately leading to neurotoxicity and neurodegeneration. The experiment was performed by pre-incubation of the synaptosomes with 10 µM of the compounds for 30 min, followed by the addition of 150 µM 6-hydroxy dopamine for induction of neurotoxicity. After 1 h, they were centrifuged twice for 1 min at 15,000 × g. After the second wash, the precipitates were resolved with buffer B and glucose.

Compound: COc1cc(C=NNC(=O)CCc2c[nH]c3ccccc23)cc(OC)c1O [Compound 3f, N′-(4-Hydroxy-3,5-dimethoxybenzylidene)-3-(1H-indol-3-yl)propanehydrazide]
- IC50 at 24 h [1]: > 500 µM
- absorbance ratio sample/control (lipid peroxidation) [2]: below 65%
- absorbance at 515 nm compared to the controls (Fe(II) chelation) [3]: statistically identical absorbance values at 515 nm, as compared to the controls

Compound: COc1ccc2[nH]cc(CCNC(C)=O)c2c1 [Melatonin]
- IC50 at 24 h [1]: > 500 µM
- GSH level preserved, as compared to 6-OHDA [4]: 90%

Compound: COc1ccc(C=NNC(=O)c2cc3cc(OC)ccc3[nH]2)c(O)c1 [Compound 5e, N′-(2-Hydroxy-4-methoxybenzylidene)-5-methoxy-1H-indole-2-carbohydrazide]
- IC50 at 24 h [1]: 12.1 µM
- absorbance ratio sample/control (lipid peroxidation) [2]: about 45%
- absorbance at 515 nm compared to the controls (Fe(II) chelation) [3]: statistically significant changes; also recorded: much higher absorbance values than the controls

Compound: COc1cc(C=NNC(=O)CCc2c[nH]c3ccccc23)ccc1O [Compound 3d, N′-(4-Hydroxy-3-methoxybenzylidene)-3-(1H-indol-3-yl)propanehydrazide]
- IC50 at 24 h [1]: 367 µM
- absorbance at 515 nm compared to the controls (Fe(II) chelation) [3]: statistically identical absorbance values at 515 nm, as compared to the controls

Compound: COc1ccc2[nH]c(C(=O)NN=Cc3ccc(O)cc3O)cc2c1 [Compound 5c, N′-(2,4-Dihydroxybenzylidene)-5-methoxy-1H-indole-2-carbohydrazide]
- IC50 at 24 h [1]: > 500 µM
- absorbance ratio sample/control (lipid peroxidation) [2]: about 45%
- absorbance at 515 nm compared to the controls (Fe(II) chelation) [3]: statistically significant changes

Compound: COc1ccc2[nH]c(C(=O)NN=Cc3ccc(O)c(OC)c3)cc2c1 [Compound 5d, N′-(4-Hydroxy-3-methoxybenzylidene)-5-methoxy-1H-indole-2-carbohydrazide]
- IC50 at 24 h [1]: 353 µM
- absorbance at 515 nm compared to the controls (Fe(II) chelation) [3]: statistically identical absorbance values at 515 nm, as compared to the controls
- GSH level preserved, as compared to 6-OHDA [4]: 40%

Compound: N′-(4-Hydroxy-2-methoxybenzylidene)-3-(1H-indol-3-yl)propanehydrazide [Compound 3e]
- absorbance at 515 nm compared to the controls (Fe(II) chelation) [3]: statistically significant changes; also recorded: much higher absorbance values than the controls

Compound: COc1ccc2[nH]c(C(=O)NN=Cc3cccc(O)c3O)cc2c1 [Compound 5a, N′-(2,3-Dihydroxybenzylidene)-5-methoxy-1H-indole-2-carbohydrazide]
- IC50 at 24 h [1]: 197 µM
- absorbance at 515 nm compared to the controls (Fe(II) chelation) [3]: identical absorbance values, as compared to the controls
- GSH level preserved, as compared to 6-OHDA [4]: 40%

Compound: COc1ccc2[nH]c(C(=O)NN=Cc3cc(OC)c(O)c(OC)c3)cc2c1 [Compound 5f, N′-(4-Hydroxy-3,5-dimethoxybenzylidene)-5-methoxy-1H-indole-2-carbohydrazide]
- IC50 at 24 h [1]: 184 µM
- absorbance ratio sample/control (lipid peroxidation) [2]: about 45%
- absorbance at 515 nm compared to the controls (Fe(II) chelation) [3]: statistically identical absorbance values at 515 nm, as compared to the controls

Compound: COc1ccc2[nH]c(C(=O)NN=Cc3ccc(O)c(O)c3)cc2c1 [Compound 5b, N′-(3,4-Dihydroxybenzylidene)-5-methoxy-1H-indole-2-carbohydrazide]
- IC50 at 24 h [1]: 158 µM
- absorbance at 515 nm compared to the controls (Fe(II) chelation) [3]: statistically identical absorbance values at 515 nm, as compared to the controls

— PMC10135567, “New Indole-3-Propionic Acid and 5-Methoxy-Indole Carboxylic Acid Derived Hydrazone Hybrids as Multifunctional Neuroprotectors” (Antioxidants, 2023)
